Assay results: patent US10918713B2, “Epitopes from allergen proteins and methods and uses for immune response modulation” (LA JOLLA INSTITUTE FOR ALLERGY AND IMMUNOLOGY, priority 2012, dated 2021)
Where “and” joins values, the source holds several entries; their conditions need not be identical. Equal entries are not always repeated.

Columns and labels:
Type in all cases: cell-based, human
[1] = system: PBMC from allergic donors; assay: IL-5 ELISPOT with extract-stimulated short-term lines; conditions: positive donor/peptide response
Protocol: (§1) Spots were counted by computer-assisted image analysis (Zeiss, KS-ELISPOT reader, Munich, Germany).
(§2) Each assay was performed in triplicate. The level of statistical significance was determined with a Student's t-test using the mean of triplicate values of the response against relevant pools or individual peptides versus the response against the DMSO control.

[2] = system: PBMC from allergic donors; assay: IFN-γ ELISPOT with extract-stimulated short-term lines; conditions: positive donor/peptide response
Protocol: as §1, §2

[3] = system: PBMC from allergic donors; assay: Dual ELISPOT, total IL-5 and IFN-γ response (SFC); conditions: sum of IFNg and IL-5
Protocol: as §1, §2

| Compound | Response (SFC/10^6) IL-5 ([1]; one donor per table line) | Response (SFC/10^6) IFNg ([2]; one donor per table line) | Response (SFC/10^6) IL-5 ([1]; each table line is one donor) | Response (SFC/10^6) IFNg ([2]; each table line is one donor) [SFC/10^6] | Response (SFC/10^6) Total ([3]; each table line is one donor) | Response (SFC/10^6) Total ([3]; one donor per table line) |
| --- | --- | --- | --- | --- | --- | --- |
| 3324.0001 (AVGLLKAVESYLLAH) | 597 SFC/10^6 | 597 SFC/10^6 | – | – | – | – |
| 3324.0099 (MKNIFMLTLFILIIT) | – | – | 57 SFC/10^6 | 77 | 57 SFC/10^6 and 77 SFC/10^6 | – |
| 3324.0102 (DKWLDAKSTWYGKPT) | 147 SFC/10^6 | 447 SFC/10^6 and 233 SFC/10^6 and 123 SFC/10^6 | – | – | – | 593 SFC/10^6 and 233 SFC/10^6 and 123 SFC/10^6 |
| 3324.0382 (LYPDVKYTTVEEYLQ) | 67 SFC/10^6 | 67 SFC/10^6 | – | – | – | – |
| 3324.0613 (MNIKLQMPLYVAGYK) | 652 SFC/10^6 | 120 SFC/10^6 | – | – | – | 652 SFC/10^6 and 120 SFC/10^6 |
| 3324.0660 (IPTAFKIGTTYTPEE) | 170 SFC/10^6 | 110 SFC/10^6 | – | – | – | 280 SFC/10^6 |
| 3324.0834 (KAFNKSYATFEDEEA) | 703 SFC/10^6 | 1563 SFC/10^6 | – | – | – | 2267 SFC/10^6 |
| 3324.0836 (EIDLRQMRTVTPIRM) | 613 SFC/10^6 | 120 SFC/10^6 | – | – | – | 733 SFC/10^6 |
| 3324.0842 (GGAINHLSDLSLDEF) | 603 SFC/10^6 | 170 SFC/10^6 | – | – | – | 773 SFC/10^6 |
| 3324.1104 (LGFFKKEALPQCAQV) | 573 SFC/10^6 | 53 SFC/10^6 | – | – | – | 627 SFC/10^6 |
| 3324.1168 (NAGFKAAVAAAAVVP) | – | – | 873 SFC/10^6 and 977 SFC/10^6 and 248 SFC/10^6 | 850 | 1723 SFC/10^6 and 977 SFC/10^6 and 248 SFC/10^6 | – |
| 3324.1586 (KAVEAYLVAHPDLYK) | 83 SFC/10^6 and 53 SFC/10^6 and 143 SFC/10^6 and 443 SFC/10^6 | 110 SFC/10^6 | – | – | – | 83 SFC/10^6 and 53 SFC/10^6 and 143 SFC/10^6 and 553 SFC/10^6 |
| 3324.1592 (LGRAWFEAARVVFSY) | – | – | 1430 SFC/10^6 | 120 | 1550 SFC/10^6 | – |
| 3324.1625 (GFYLQWAVHSFRITN) | – | – | 143 SFC/10^6 | 193 | 337 SFC/10^6 | – |
| 3337.0007 (GKYCVCYDSKAICNK) | – | – | – | 47 | 47 SFC/10^6 | – |
| 3337.0008 (WLDAKSTWYGKPTGA) | 57 SFC/10^6 | 140 SFC/10^6 and 283 SFC/10^6 and 163 SFC/10^6 | – | – | – | 140 SFC/10^6 and 57 SFC/10^6 and 283 SFC/10^6 and 163 SFC/10^6 |
| 3337.0028 (EPIAPYHFDLSGHAF) | 97 SFC/10^6 | 157 SFC/10^6 | – | – | – | 253 SFC/10^6 |
| 3337.0039 (SWGAIWRIDTPDKLT) | – | – | – | 155 | 155 SFC/10^6 | – |
| 3337.0044 (IKLVKSSRPDCSEIP) | – | – | 233 SFC/10^6 | 90 | 90 SFC/10^6 and 233 SFC/10^6 | – |
| CC[C@H](C)[C@H](NC(=O)[C@H](Cc1ccccc1)NC(=O)[C@H](C)NC(=O)[C@H](CCCCN)NC(=O)[C@H](Cc1ccccc1)NC(=O)[C@H](CC(C)C)NC(=O)[C@H](CCCNC(=N)N)NC(=O)[C@H](C)NC(=O)[C@H](C)NC(=O)[C@@H]1CCCN1C(=O)[C@@H](NC(=O)[C@@H](NC(=O)[C@H](CO)NC(=O)[C@@H]1CCCN1)C(C)C)[C@@H](C)CC)C(=O)N[C@@H](CC(C)C)C(=O)O [3324.0004] | – | 683 SFC/10^6 | – | – | – | 683 SFC/10^6 |
| CC[C@H](C)[C@H](NC(=O)[C@H](CO)NC(=O)CNC(=O)CN)C(=O)N[C@@H](CC(C)C)C(=O)N[C@@H](CCCCN)C(=O)N[C@H](C(=O)N[C@@H](CO)C(=O)N[C@@H](CC(N)=O)C(=O)N[C@@H](CCCCN)C(=O)N[C@@H](Cc1ccccc1)C(=O)N[C@@H](Cc1c[nH]cn1)C(=O)N[C@H](C(=O)N[C@@H](CCCCN)C(=O)NCC(=O)O)[C@@H](C)O)[C@@H](C)CC [3324.0007] | – | 887 SFC/10^6 and 357 SFC/10^6 | – | – | – | 887 SFC/10^6 and 357 SFC/10^6 |
| CC[C@H](C)[C@H](N)C(=O)N[C@H](C(=O)N[C@@H](Cc1ccc(O)cc1)C(=O)N[C@H](C(=O)N[C@@H](CCCCN)C(=O)N1CCC[C@H]1C(=O)N[C@@H](C)C(=O)N[C@@H](CCCCN)C(=O)N[C@@H](CC(N)=O)C(=O)N[C@H](C(=O)N[C@@H](Cc1ccc(O)cc1)C(=O)N[C@@H](CO)C(=O)N[C@@H](Cc1ccccc1)C(=O)N[C@@H](CC(N)=O)C(=O)N[C@@H](CCC(=O)O)C(=O)O)[C@@H](C)CC)[C@@H](C)CC)C(C)C [3324.0386] | – | 227 SFC/10^6 and 487 SFC/10^6 | – | – | – | 227 SFC/10^6 and 487 SFC/10^6 |
| CC[C@H](C)[C@H](NC(=O)[C@H](CC(N)=O)NC(=O)[C@H](CCCCN)NC(=O)[C@H](C)NC(=O)[C@@H]1CCCN1C(=O)[C@H](CCCCN)NC(=O)[C@@H](NC(=O)[C@H](Cc1ccc(O)cc1)NC(=O)[C@@H](NC(=O)[C@@H](NC(=O)[C@H](CCCCN)NC(=O)[C@H](CC(N)=O)NC(=O)[C@H](CC(C)C)NC(=O)[C@@H](NC(=O)[C@@H](N)CCCNC(=N)N)[C@@H](C)O)[C@@H](C)CC)C(C)C)[C@@H](C)CC)C(=O)O [3324.0387] | – | 580 SFC/10^6 and 140 SFC/10^6 | – | – | – | 580 SFC/10^6 and 140 SFC/10^6 |
| CC[C@H](C)[C@H](NC(=O)[C@H](CC(N)=O)NC(=O)[C@H](CC(C)C)NC(=O)[C@H](CC(N)=O)NC(=O)[C@H](CCCCN)NC(=O)[C@H](CO)NC(=O)[C@H](Cc1ccccc1)NC(=O)[C@@H](NC(=O)[C@@H](NC(=O)[C@H](Cc1c[nH]c2ccccc12)NC(=O)[C@H](CC(C)C)NC(=O)[C@H](CO)NC(=O)[C@H](CCCNC(=N)N)NC(=O)[C@@H](N)CCC(=O)O)[C@@H](C)CC)[C@@H](C)CC)C(=O)N[C@@H](CCCCN)C(=O)O [3324.0517] | 117 SFC/10^6 | 97 SFC/10^6 | – | – | – | 117 SFC/10^6 and 97 SFC/10^6 |
| CC[C@H](C)[C@H](NC(=O)[C@H](CC(N)=O)NC(=O)[C@H](CCSC)NC(=O)[C@H](CC(N)=O)NC(=O)[C@H](CCC(N)=O)NC(=O)[C@H](CO)NC(=O)[C@H](Cc1ccccc1)NC(=O)[C@@H](NC(=O)[C@@H](NC(=O)[C@H](Cc1c[nH]c2ccccc12)NC(=O)[C@H](CC(C)C)NC(=O)[C@H](C)NC(=O)[C@@H](N)CCCCN)[C@@H](C)CC)[C@@H](C)CC)C(=O)N[C@@H](CCCCN)C(=O)N[C@@H](CC(C)C)C(=O)O [3324.0604] | – | 390 SFC/10^6 | – | – | – | 390 SFC/10^6 |
| CC[C@H](C)[C@H](NC(=O)[C@H](CC(N)=O)NC(=O)[C@@H](NC(=O)[C@H](CC(=O)O)NC(=O)[C@@H](N)CCC(=O)O)[C@@H](C)O)C(=O)N[C@@H](Cc1ccc(O)cc1)C(=O)N[C@@H](CC(N)=O)C(=O)N[C@@H](CO)C(=O)N[C@@H](CC(N)=O)C(=O)N[C@@H](CCC(=O)O)C(=O)N[C@@H](C)C(=O)N[C@@H](Cc1ccccc1)C(=O)N[C@@H](CCCCN)C(=O)N[C@H](C(=O)N[C@@H](CCC(=O)O)C(=O)O)C(C)C [3324.0606] | 427 SFC/10^6 | 240 SFC/10^6 and 73 SFC/10^6 | – | – | – | 427 SFC/10^6 and 240 SFC/10^6 and 73 SFC/10^6 |
| CC[C@H](C)[C@H](N)C(=O)N[C@@H](Cc1ccccc1)C(=O)N[C@@H](CO)C(=O)N[C@@H](CCC(N)=O)C(=O)N[C@@H](CC(N)=O)C(=O)N[C@@H](CCSC)C(=O)N[C@@H](CC(N)=O)C(=O)N[C@H](C(=O)N[C@@H](CCCCN)C(=O)N[C@@H](CC(C)C)C(=O)N[C@@H](CCC(N)=O)C(=O)N[C@@H](CCSC)C(=O)N1CCC[C@H]1C(=O)N[C@@H](CC(C)C)C(=O)N[C@@H](Cc1ccc(O)cc1)C(=O)O)[C@@H](C)CC [3324.0607] | 2607 SFC/10^6 | 70 SFC/10^6 | – | – | – | 2607 SFC/10^6 and 70 SFC/10^6 |
| CC[C@H](C)[C@H](NC(=O)[C@H](CC(N)=O)NC(=O)[C@H](CCSC)NC(=O)[C@H](CC(N)=O)NC(=O)[C@H](CCC(N)=O)NC(=O)[C@H](CO)NC(=O)[C@H](Cc1ccccc1)NC(=O)[C@@H](NC(=O)[C@@H](NC(=O)[C@H](Cc1c[nH]c2ccccc12)NC(=O)[C@H](CC(C)C)NC(=O)[C@H](C)NC(=O)[C@H](CCCCN)NC(=O)[C@@H](N)CCC(=O)O)[C@@H](C)CC)[C@@H](C)CC)C(=O)N[C@@H](CCCCN)C(=O)O [3324.0615] | 67 SFC/10^6 | 333 SFC/10^6 | – | – | – | 400 SFC/10^6 |
